The source of these data is ChEMBL document CHEMBL3414518, “Development of selective DprE1 inhibitors: Design, synthesis, crystal structure and antitubercular activity of benzothiazolylpyrimidine-5-carboxamides” (Eur J Med Chem, 2015).

Data set [1] in a line: AUC (0 to infinity) in Sprague-Dawley rat at 10 mg/kg, iv. It counts as ADME, organism-based. Also noted: time infinity, dose 10 mg/kg, route intravenous. The settings on record: plasma.
The nature of data set [2]: Tmax in Sprague-Dawley rat at 20 mg/kg, po. It counts as ADME, organism-based. More on the design: dose 20 mg/kg, route oral. The settings on record: in vivo.
A short description of data set [3]: Cmax in Sprague-Dawley rat at 10 mg/kg, iv. The settings on record: in vivo. Also noted: dose 10 mg/kg, route intravenous. The format is ADME, organism-based.
Data set [4] can be described thus: Cmax in Sprague-Dawley rat at 20 mg/kg, po. The format is ADME, organism-based. Also noted: dose 20 mg/kg, route oral. The settings on record: in vivo.
A short description of data set [5]: Oral bioavailability in Sprague-Dawley rat at 20 mg/kg. It counts as ADME, organism-based. The settings on record: in vivo.
The nature of data set [6]: Inhibition of Mycobacterium tuberculosis DprE1 using beta-D-ribofuranose as substrate after 7 mins by UV-Visible spectroscopy.
Data set [7] can be described thus: AUC (0 to infinity) in Sprague-Dawley rat at 20 mg/kg, po. It counts as ADME, organism-based. Also noted: time infinity, dose 20 mg/kg, route oral. As to conditions: plasma.
Data set [8] in a line: Partition coefficient, log P of the compound in PBS at 10 mM at pH 7.4 after 5 hrs by shake flask method. It counts as physicochemical.
Data set [9] is described as follows: Elimination half life in Sprague-Dawley rat at 10 mg/kg, iv. As to conditions: in vivo, read-out: beta t1/2 (converted). The format is ADME, organism-based. Also noted: dose 10 mg/kg, route intravenous.
Data set [10] relates to Mycobacterium tuberculosis. In words: Antitubercular activity against Mycobacterium tuberculosis H37Rv ATCC 27294 after 5 days by broth microdilution method. The format is functional. As to conditions: H37Rv ATCC 27294, 120 h. Background: Broth dilution looks for growth in wells or tubes with falling amounts of substance.
The nature of data set [11]: Elimination half life in Sprague-Dawley rat at 20 mg/kg, po. As to conditions: in vivo, read-out: beta t1/2 (converted). More on the design: dose 20 mg/kg, route oral. The format is ADME, organism-based.

In brackets after ≈: the same amount, converted by molar mass.

Turning to `CC1=C(C(=O)Nc2nc3ccccc3s2)C(c2ccccc2)NC(=S)N1` (stereo not given), the AUC(0-inf) in data set [1] was 1500 ng·h/mL; in data set [7] it was 790 ng·h/mL. For the same compound, the Tmax in [2] came out at 0.5 h. Moreover, the Cmax in data set [3] is 1800 ng/mL; in data set [4], 590 ng/mL. In data set [5], this compound displayed a bioavailability of 52.7%. Besides, the IC50 in data set [6] was 7.7 µM. In [8], this compound gave a logD at 5 h of 2.03. Further, the figures for the half-life in data set [9] and in data set [11] were 2.6 h and 5.5 h, respectively. This compound also returned a minimum inhibitory concentration (MIC) in data set [10] of 0.08 µM (≈ 0.0304 µg/mL).

In data set [10], `CC1=C(C(=O)Nc2nc3ccccc3s2)C(c2ccccc2Cl)NC(=S)N1` (stereo not given) showed an MIC of 0.32 µM (≈ 0.133 µg/mL).

For the compound `CC1=C(C(=O)Nc2nc3ccccc3s2)C(c2ccc(Cl)cc2)NC(=S)N1` (stereo not given), it took 0.32 µM (≈ 0.133 µg/mL) to inhibit growth in data set [10] (MIC).

As to `CC1=C(C(=O)Nc2nc3ccccc3s2)C(c2ccc(Cl)cc2Cl)NC(=S)N1` (stereo not given), the MIC in [10] is 0.25 µM (≈ 0.112 µg/mL).

`CC1=C(C(=O)Nc2nc3ccccc3s2)C(c2ccc(F)cc2)NC(=S)N1` (stereo not given): the AUC(0-inf) in data set [1] was determined as 1530 ng·h/mL; in data set [7] it was 810 ng·h/mL. Moreover, in data set [2], the Tmax stood at 0.6 h. Besides, the Cmax in [3] came out at 1500 ng/mL; in [4], 340 ng/mL. In data set [5], this compound yielded a bioavailability of 51.9%. The compound further returned an IC50 in data set [6] of 9.2 µM. The compound further came in with a logD at 5 h in data set [8] of 2.18. The half-life in data set [9] was 2.8 h; in data set [11] it was 5.8 h. This compound also returned an MIC in data set [10] of 0.09 µM (≈ 0.0359 µg/mL).

With `CC1=C(C(=O)Nc2nc3ccccc3s2)C(c2ccc(C(F)(F)F)cc2)NC(=S)N1` (stereo not given), the AUC(0-inf) in [1] turned out to be 1640 ng·h/mL; in [7], 830 ng·h/mL. Further, the Tmax in data set [2] came to 0.6 h. Also, the Cmax in data set [3] amounted to 1730 ng/mL; in data set [4] it was 490 ng/mL. In [5], this compound returned a bioavailability of 50.6%. It took 11.1 µM to reach half-maximal inhibition in data set [6] (IC50). Moreover, in data set [8], the logD at 5 h amounted to 2.92. For the same compound, the half-life in data set [9] is 2.6 h; in [11], 6 h. The compound further showed an MIC in [10] of 0.09 µM (≈ 0.0404 µg/mL).

As to `CC1=C(C(=O)Nc2nc3ccccc3s2)C(c2ccc(Br)cc2)NC(=S)N1` (stereo not given), the MIC in data set [10] worked out at 0.4 µM (≈ 0.184 µg/mL).

On to `CC1=C(C(=O)Nc2nc3ccccc3s2)C(c2ccccc2[N+](=O)[O-])NC(=S)N1` (stereo not given), for which, in data set [10], 1.2 µM (≈ 0.511 µg/mL) was the least that counted as inhibitory (MIC).

As to `CC1=C(C(=O)Nc2nc3ccccc3s2)C(c2cccc([N+](=O)[O-])c2)NC(=S)N1` (stereo not given), in data set [10], the MIC came out at 1.3 µM (≈ 0.553 µg/mL).

In turn, `CC1=C(C(=O)Nc2nc3ccccc3s2)C(c2ccc([N+](=O)[O-])cc2)NC(=S)N1` (stereo not given) came in with an MIC in data set [10] of 1.2 µM (≈ 0.511 µg/mL).

Compound `COc1ccccc1C1NC(=S)NC(C)=C1C(=O)Nc1nc2ccccc2s1` (stereo not given) gave an MIC in data set [10] of 0.5 µM (≈ 0.205 µg/mL).

In data set [10], `COc1ccc(C2NC(=S)NC(C)=C2C(=O)Nc2nc3ccccc3s2)cc1` (stereo not given) had an MIC of 0.5 µM (≈ 0.205 µg/mL).

Regarding `CC1=C(C(=O)Nc2nc3ccccc3s2)C(c2ccccc2O)NC(=S)N1` (stereo not given), the MIC in [10] amounted to 2.4 µM (≈ 0.952 µg/mL).

For the compound `CC1=C(C(=O)Nc2nc3ccccc3s2)C(c2ccc(O)cc2)NC(=S)N1` (stereo not given), it took 2.4 µM (≈ 0.952 µg/mL) to inhibit growth in data set [10] (MIC).

`CC1=C(C(=O)Nc2nc3ccccc3s2)C(c2ccc(N(C)C)cc2)NC(=S)N1` (stereo not given): the values for the AUC(0-inf) in data set [1] and in data set [7] were 1480 ng·h/mL and 780 ng·h/mL, respectively. The Tmax in [2] came out at 0.5 h. Besides, the Cmax amounted to 1620 ng/mL in data set [3] and 410 ng/mL in [4]. The bioavailability in [5] turned out to be 52.7%. The compound further gave an IC50 in [6] of 10.3 µM. Besides, in data set [8], the logD at 5 h came out at 2.22. Further, the half-life was 2.5 h in data set [9] and 1.4 h in data set [11]. Besides, in data set [10], the MIC turned out to be 0.08 µM (≈ 0.0339 µg/mL).

Consider `COc1ccc(C2NC(=S)NC(C)=C2C(=O)Nc2nc3ccccc3s2)cc1O` (stereo not given), for which it took 1.2 µM (≈ 0.512 µg/mL) to inhibit growth in data set [10] (MIC).

For `COc1cccc(C2NC(=S)NC(C)=C2C(=O)Nc2nc3ccccc3s2)c1O` (stereo not given), the MIC in [10] turned out to be 1.4 µM (≈ 0.597 µg/mL).

With `COc1cc(C2NC(=S)NC(C)=C2C(=O)Nc2nc3ccccc3s2)cc(OC)c1O` (stereo not given), the MIC in data set [10] worked out at 1.2 µM (≈ 0.548 µg/mL).

With `COC(=O)c1ccc(C2NC(=S)NC(C)=C2C(=O)Nc2nc3ccccc3s2)cc1` (stereo not given), the MIC in data set [10] is 3.1 µM (≈ 1.36 µg/mL).

The compound `NNC(=O)c1ccncc1` [ISONIAZID] had an MIC in data set [10] of 0.2 µM (≈ 0.0274 µg/mL).

In general, AUC(0-inf) refers to total exposure, with the tail of the curve extrapolated. A high value points to high exposure. As a reminder, the Tmax is the time at which the peak concentration occurs. By Cmax is commonly meant the highest concentration seen after dosing. The bioavailability is the share of a dose that reaches the circulation, judged against a reference dose that is usually intravenous. The low end stands for poor availability, the high end for good availability. By IC50 is commonly meant the concentration that gives 50% inhibition. A word on the logD: it is lipophilicity at a set pH, counting ionised and neutral species. Lower therefore signals lower lipophilicity. For orientation: MIC means the smallest concentration in the dilution series that meets the test's criterion for growth inhibition.
